Results: paper PMC5906710, “Simvastatin Enhances Activity and Trafficking of α7 Nicotinic Acetylcholine Receptor in Hippocampal Neurons Through PKC and CaMKII Signaling Pathways” (Frontiers in Pharmacology, 2018)

Target: T1, α7 nicotinic acetylcholine receptor (α7nAChR) (Mus musculus, UniProt P49582)
T1 construct: gene Chrna7; native receptor in hippocampal CA1 pyramidal cells (slices)
Test: whole-cell patch-clamp of ACh-evoked currents in mouse hippocampal slices, dose-response

T1 sequence (P49582 23-502): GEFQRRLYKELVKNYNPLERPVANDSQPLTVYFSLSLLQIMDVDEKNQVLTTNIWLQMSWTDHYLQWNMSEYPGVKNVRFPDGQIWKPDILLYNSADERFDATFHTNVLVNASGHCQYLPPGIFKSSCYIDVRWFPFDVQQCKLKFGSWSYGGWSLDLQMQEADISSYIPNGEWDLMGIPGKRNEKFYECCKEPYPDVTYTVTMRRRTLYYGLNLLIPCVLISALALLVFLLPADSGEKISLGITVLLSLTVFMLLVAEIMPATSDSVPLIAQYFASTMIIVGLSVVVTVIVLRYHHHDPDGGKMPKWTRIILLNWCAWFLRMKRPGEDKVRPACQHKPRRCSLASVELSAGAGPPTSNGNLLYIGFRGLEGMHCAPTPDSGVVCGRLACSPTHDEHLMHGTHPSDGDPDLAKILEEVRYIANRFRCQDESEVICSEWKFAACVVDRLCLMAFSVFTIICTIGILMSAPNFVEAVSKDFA

## CC(=O)OCC[N+](C)(C)C [ACh, acetylcholine]
  EC50: 117.1 ± 0.94 µM
